Laboratory results reported in article PMC10746708, “A small molecule iCDM-34 identified by in silico screening suppresses HBV DNA through activation of aryl hydrocarbon receptor” (Cell Death Discovery, 2023).

Test system: HBV genotype C
Assay: Anti-HBV activity in human hepatocyte-chimeric mice (liver HBV DNA)
Type: in vivo, human hepatocyte-chimeric mice (PXB-mice)
Conditions: 21 days
Method: PXB-mice (human liver chimeric cDNA-uPA^wild/+/SCID male mice) were generated by PhoenixBio. HBV genotype C was then inoculated into the mice via i.v.. After attaining 1.2 × 10^8–3.5 × 10^8 copies/mL of the serum HBV DNA levels, vehicle (10% 2-hydroxypropyl-beta-cyclodextrin and 10% polyethylene glycol 300) or 1 mg/kg iCDM-34 was i.v. injected with or without administration of 0.03 mg/kg ETV orally once a day for 21 days (n = 4). DNA was purified from the liver and its concentration was measured using NanoDrop Spectrophotometer (Thermo Fisher Scientific), followed by measurement of HBV DNA levels by qPCR according to a previously established method. The experimental procedures using the PXB-mice was approved by the Animal Ethics Committee of PhoenixBio.

## O=C(Nc1ccc(Br)cc1)c1ccn(Cn2cc([N+](=O)[O-])cn2)n1 [iCDM-34]
1 mg/kg i.v. once a day, alone
  HBV DNA in the liver, single agent: did not reduce
1 mg/kg i.v. plus ETV 0.03 mg/kg p.o. once a day
  HBV DNA in the liver, combination with ETV compared with ETV alone: drastically suppressed
